Assays:
ADJ/PC6 tumor = assay: antitumor activity using ADJ/PC6 tumor in mice; type: in vivo; details: for P.O. ED90 / P.O. TI: oral (P.O.); for P.O. TI / I.P. TI: TI from LD50 and ED90; for I.P. ED90 / I.P. TI: parenteral (I.P.)
Method: (§1) Complexes according to the invention were tested for antitumor activity using ADJ/PC6 tumor in mice. The complexes were administered parenterally (I.P.) or orally (P.O.).

mice = assay: lethality (LD50) in mice, ADJ/PC6 antitumor test; type: in vivo; details: for P.O. LD50: oral (P.O.); for I.P. LD50: parenteral (I.P.)
Method: as §1

[1] = common organic solvents, e.g., acetone, methylene chloride; cited from earlier work

Compound: c-t-c-PtCl2 (O2 CCH2 CH3)2 (NH3)(n-C3 H7 NH2) [Compound 9 (Table 2)]
- P.O. ED90 (ADJ/PC6 tumor): 8.6 mg/kg
- P.O. TI (ADJ/PC6 tumor): 13.7
- I.P. ED90 (ADJ/PC6 tumor): 5.6 mg/kg
- I.P. TI (ADJ/PC6 tumor): 7.4
- P.O. LD50 (mice): 118 mg/kg
- I.P. LD50 (mice): 41.5 mg/kg

Compound: c-t-c-PtCl2 (O2 CCH3)2 (NH3)(n-C3 H7 NH2) [Compound 8 (Table 2)]
- P.O. ED90 (ADJ/PC6 tumor): 18 mg/kg
- P.O. TI (ADJ/PC6 tumor): 13.1
- I.P. ED90 (ADJ/PC6 tumor): 3.1 mg/kg
- I.P. TI (ADJ/PC6 tumor): 11.3
- P.O. LD50 (mice): 235 mg/kg
- I.P. LD50 (mice): 35 mg/kg

Compound: N.N.O=C([O-])C1(C(=O)[O-])CCC1.[Pt+2] [carboplatin]
- solubility in water / organic solvents (in words), prior-art complexes [1]: dissolve more readily in water than they do in common organic solvents
